Here are results for 18 molecules from patent EP1674457B1, “Derivatives of squaric acid with anti-proliferative activity” (GPC Biotech AG, priority 2004, dated 2006).

pIC50: −log10 of the molar value. Like-named read-outs stand apart in the source and are kept apart here. Bounds are passed on as bounds.

Test [1] deals with A2780. Put plainly: SRB assay, inhibition of tumor cell growth at 1 µM (Example 61). Type of test: cell-based, Human. As to conditions: 48 hours; for inhibition at 1 µM: Homo sapiens. The procedure:
(§1) 3,000-15,000 cells/well were exposed to the test compounds at a concentration of 1 µM for 48 hours, and cytotoxicty was measured using the SRB assay according to Shekan et al (J Natl Cancer Inst (1990) 82, 1107-112). Briefly, cells were plated in 96 well dishes 24 hours prior to compound addition. The assay was terminated with the addition of cold TCA to a final concentration of 10% and the plates were incubated for one hour at 4°C. The plates were then washed 5 times with water and 100µl of a Sulforhodamine B solution (4%) was added to each well. The plate was then incubated for 10 minutes at room temperature before removal of unbound dye by washing with 1% acetic acid. The bound dye was solubilized with 10 mM Trizma base and the absorbance read at OD570. Inhibitory activity of the compounds was calculated as % inhibition compared to cells treated with the solvent (DMSO). Table 2 represents the growth inhibitory activity of certain compunds of the invention across a number of tumor cell lines.
A general note: The SRB assay estimates cell density from bound dye.

In test [2] the test system is A-549. The test is described as above. Type of test: cell-based. Conditions: for % Inhibition (1 µM): 48 hours; for inhibition at 1 µM: Homo sapiens, A549, 48 hours. The method, then:
as §1

Test [3] relates to HCT-116. The description is as above. In kind it is cell-based. As to conditions: 48 hours; for inhibition at 1 µM: Homo sapiens. The method, then:
as §1

Test [4] deals with MCF7. Described as above. Type of test: cell-based. As to conditions: 48 hours; for inhibition at 1 µM: Homo sapiens. The procedure:
as §1

The subject of test [5] is PC-3. The test is described as above. In kind it is cell-based. As to conditions: 48 hours; for inhibition at 1 µM: Homo sapiens. The method, then: as §1
Test [6] deals with SW-620. The test is described as above. In kind it is cell-based. Conditions: 48 hours; for inhibition at 1 µM: Homo sapiens. The procedure:
as §1

The subject of test [7] is HCT-116. Put plainly: IC50 determination by SRB assay (Example 62). Type of test: cell-based. Conditions: HCY-116. The procedure:
as §1
(§2) The assay was performed similar to example 61. However, test compounds were added at various concentrations, such as from 0.001 to about 0.1 µM, from 0.1 to about 10 µM, or from 1 to about 10 µM, as the need may be, in order to estimate the IC50 values. IC50 values were determined by plotting the percentage inhibitory activity for each concentration, fitting a curve using appropriate software and estimating the concentration at which 50% inhibition of growth would occur.

Test [8] relates to SW-620. Kind of test: IC50 determination by SRB assay (Example 62). In kind it is cell-based. The procedure: as §1, §2
Test [9] relates to MCF7. Put plainly: IC50 determination by SRB assay (Example 62). Type of test: cell-based. The procedure:
as §1, §2

Test [10] deals with A2780. Put plainly: IC50 determination by SRB assay (Example 62). In kind it is cell-based. As to conditions: Homo sapiens. The procedure: as §1, §2

The term pIC50 denotes −log10 of the IC50, conventionally taken in molar units. Low readings indicate a large IC50, high ones a small IC50. “3-[6-(3,4-Dichlorophenoxy)-hexylamino)]-4-(pyridin-4yl-amino)-3-cyclobutene-1,2-dione [SQ-15]”: the “% Inhibition (1 µM)” value is over 80% in test [1]; over 20% in test [2]; over 80% in [3]; over 20% in [4]; over 50% in test [5]; over 20% in test [6]. In addition, the results for the pIC50 in test [7] and in test [8] were over 7.00 and over 6.30, respectively.
Usually inhibition stands for the percentage by which the read-out fell short of the control. Low values mean a response near the control, high ones a response far below the control. Consider `O=c1c(NCc2ccc(Oc3ccc(Cl)cc3)cc2)c(Nc2cccnc2)c1=O` [SQ-30, 3-[4-(4-Chlorophenoxy)-benzylamino]-4-(pyridin-3-yl-amino)-cyclobut-3-ene-1,2-dione], for which the inhibition at 1 µM in test [1] is over 80%; in [2], over 50%; in [3], over 80%; in test [4], over 80%; in test [5], over 20%; in [6] it was over 20%. For the same molecule, the negative logarithm of the IC50 (pIC50) in [7] (Homo sapiens, HCT-116) was over 5.70; in [9] (Homo sapiens) it was over 6.30; in test [8] (Homo sapiens) it was under 5.00.
Regarding “3-[2-(4-Phenoxyphenyl)-ethylamino]-4-(pyridin-3-yl-amino)-cyclobut-3-ene-1,2-dione [SQ-5]”, the “% Inhibition (1 µM)” value is over 80% in [1]; over 80% in [3]; over 50% in test [4]; over 50% in test [5]; 0% in test [6]. Moreover, the negative logarithm of the IC50 (pIC50) in test [7] is over 7.00; in test [9], over 5.00; in test [8], over 5.70.
Turning to `O=c1c(NCCCCCCCCOc2ccc(Cl)cc2)c(Nc2ccncc2)c1=O` [SQ-9], the inhibition at 1 µM in test [1] was over 80%; in test [2], over 5%; in [3] it was over 80%; in [4] it was over 80%; in test [5], over 50%; in test [6], over 50%. The pIC50 was over 6.30 in [9] (Homo sapiens) and over 5.70 in [8] (Homo sapiens).
In the case of `O=c1c(NCCCCCOc2ccc(Cl)cc2)c(Nc2ccncc2)c1=O` [SQ-8], the inhibition at 1 µM in test [1] was over 80%; in test [2], over 5%; in [3], over 80%; in test [4], over 80%; in [5], over 50%; in [6], over 20%. Further, the pIC50 in test [7] (Homo sapiens, HCT-116) was over 7.00; in test [9] (Homo sapiens) it was over 7.00; in test [8] (Homo sapiens) it was over 5.70.
As to `O=c1c(NCCc2ccc(Oc3ccccc3)cc2)c(Nc2ccncc2)c1=O` [SQ-17, 3-[2-(4-Phenoxyphenyl)-ethylamino]-4-(pyridin-4-yl-amino)-cyclobut-3-ene-1,2-dione], the inhibition at 1 µM in [1] is over 80%; in [2] it was over 50%; in test [3], over 80%; in test [5], over 50%; in [6], over 20%. The negative logarithm of the IC50 (pIC50) in test [10] is over 7.00; in [7] (Homo sapiens, HCT-116), over 7.70; in test [9] (Homo sapiens) it was over 5.00; in test [8] (Homo sapiens) it was over 6.30.
Turning to `O=c1c(NCCCCCCOc2ccc(C(F)(F)F)cc2)c(Nc2ccncc2)c1=O` [SQ-18, 3-[6-(4-Trifluoromethylphenoxy)-hexylamino]-4-(pyridin-4-yl-amino)-cyclobut-3-ene-1,2-dione], the inhibition at 1 µM in test [1] is over 80%; in [2], over 20%; in test [3], over 80%; in [5], over 50%; in [6], over 20%. The pIC50 in [9] (Homo sapiens) was over 5.00; in test [8] (Homo sapiens), over 5.70.
Take `O=c1c(NCCCCOc2ccc(Cl)cc2)c(Nc2ccncc2)c1=O` [SQ-10]: the inhibition at 1 µM in [1] was over 50%; in test [2], 0%; in [3], over 50%; in test [4], over 50%; in [6] it was over 20%. The pIC50 was over 5.70 in test [7] (Homo sapiens, HCT-116); over 5.70 in [9] (Homo sapiens); over 5.00 in test [8] (Homo sapiens).
Turning to “3-[4-Phenoxybenzylamino]-4-(pyridin-4-yl-amino)-cyclobut-3-ene-1,2-dione [SQ-34]”, the “% Inhibition (1 µM)” value is listed as over 20% in test [1]; 0% in test [2]; over 20% in test [3]; over 0% in test [5]; 0% in test [6].
As to `O=c1c(NCCCCCCCOc2ccccc2)c(Nc2ccncc2)c1=O` [SQ-11B, 3-(7-Phenoxyheptylamino)-4-(pyridin-4yl-amino)-3-cyclobutene-1,2-dione], the inhibition at 1 µM was over 80% in [1]; over 50% in test [2]; over 80% in [3]; over 80% in [4]; over 50% in [5]; over 50% in test [6]. The negative-log IC50 (pIC50) in test [7] (Homo sapiens, HCT-116) was over 7.70; in [9] (Homo sapiens), over 7.70; in [8] (Homo sapiens), over 6.30.
Consider `N#Cc1ccc(OCCCCCCNc2c(Nc3ccncc3)c(=O)c2=O)cc1` [SQ-19, 4-{6-[3,4-Dioxo-2-(pyridin-4-ylamino)-cyclobut-1-enylamino]-hexyloxy}-benzonitrile], for which the inhibition at 1 µM in [1] was over 50%; in test [2], over 0%; in [3], over 5%; in test [5] it was over 5%; in test [6] it was over 5%.
Consider `O=c1c(NCCCCCCCOc2ccc(Cl)cc2)c(Nc2ccncc2)c1=O` [SQ-11A], for which the inhibition at 1 µM in [1] was over 80%; in test [2] it was over 5%; in [3], over 80%; in test [4] it was over 80%; in test [5], over 20%; in test [6], over 50%. For the same molecule, the pIC50 in test [7] (Homo sapiens, HCT-116) was over 7.00; in test [9] (Homo sapiens), over 7.00; in test [8] (Homo sapiens), over 5.70.
With `O=c1c(NCCCCCCNc2ccc(Cl)cc2)c(Nc2cccnc2)c1=O` [SQ-26, 3-[6-(4-Chlorophenylamino)-hexylamino]-4-(pyridin-3-yl-amino)-cyclobut-3-ene-1,2-dione], the inhibition at 1 µM in [1] is over 80%; in [2], over 50%; in test [3] it was over 80%; in [4], over 5%; in [5], over 50%; in [6], over 20%. The pIC50 in test [7] (Homo sapiens, HCT-116) is over 7.00; in test [8] (Homo sapiens), over 5.70.
Turning to `O=c1c(NCCCCCCNc2ccc(Cl)cc2)c(Nc2ccncc2)c1=O` [SQ-25, 3-[6-(4-Chlorophenylamino)-hexylamino]-4-(pyridin-4-yl-amino)-cyclobut-3-ene-1,2-dione], the inhibition at 1 µM in test [1] is over 80%; in test [2] it was over 20%; in test [3], over 80%; in test [4] it was over 5%; in [5] it was over 50%; in test [6] it was over 20%. Further, the pIC50 in [7] (Homo sapiens, HCT-116) was over 6.30; in test [8] (Homo sapiens) it was over 5.70.
On to `O=c1c(NCCCCCCOc2ccc(Cl)cc2)c(Nc2ccncc2)c1=O` [SQ-7B], for which the inhibition at 1 µM is over 80% in test [1], over 80% in test [3], over 50% in test [5] and over 50% in [6]. In addition, the pIC50 in [10] is over 7.00; in test [7] (Homo sapiens, HCT-116) it was over 7.00; in [9] (Homo sapiens), over 7.00.
With `O=c1c(NCc2cccc(Oc3ccc(Cl)cc3)c2)c(Nc2cccnc2)c1=O` [SQ-33, 3-[3-(4-Chlorophenoxy)-benzylamino]-4-(pyridin-3-yl-amino)-cyclobut-3-ene-1,2-dione], the inhibition at 1 µM in [1] was over 20%; in [2] it was 0%; in [3] it was over 50%; in test [4], 0%; in test [5], 0%; in [6] it was over 5%.
With `COc1ccc(OCCCCCCNc2c(Nc3ccncc3)c(=O)c2=O)cc1` [SQ-14], the inhibition at 1 µM in test [1] is over 80%; in [2], over 20%; in test [3], over 80%; in test [4], over 5%; in test [5] it was over 50%; in test [6], over 20%. The pIC50 is over 7.00 in test [7] (Homo sapiens, HCT-116) and over 5.70 in test [8] (Homo sapiens).
Regarding `Cc1ccc(OCCCCCCNc2c(Nc3ccncc3)c(=O)c2=O)cc1` [SQ-13], the inhibition at 1 µM was over 80% in test [1]; over 20% in [2]; over 80% in [3]; over 5% in test [4]; over 50% in test [5]; over 20% in [6]. Also, the pIC50 is over 7.00 in [7] (Homo sapiens, HCT-116) and over 5.70 in test [8] (Homo sapiens).
